These results are taken from ChEMBL document CHEMBL1121659 (J Med Chem, 1981).

Structures are written as SMILES. Active and inactive are the calls of the source. No cut-off for these calls is given here.

The test system of data set [1] is Mus musculus. Put plainly: Compound was evaluated for the dose required for protection against MES-induced seizures after 4 hours of intraperitoneal administration. The class given is functional.
The subject of data set [2] is Mus musculus. In words: Compound was evaluated for the dose required for protection against scMET-induced seizures after 4 hours of intraperitoneal administration at the doses< = 0.77-0.90 mM/kg; Inactive. The class given is functional, organism-based.
Data set [3] relates to Mus musculus. Put plainly: Compound was evaluated for the neuro toxicity up to 4 hours after doses of <=300 mg/kg administered intraperitoneally; No toxicity. The conditions noted are these: in vivo, ip. The class given is organism-based.
Data set [4] relates to Mus musculus. Put plainly: Compound was evaluated for the dose required for protection against MES-induced seizures after 4 hours of intraperitoneal administration; Inactive. The class given is functional, organism-based.
Data set [5] deals with Mus musculus. In words: Compound was evaluated for the dose required for protection against scMET-induced seizures after 4 hours of intraperitoneal administration; Inactive. The class given is functional, organism-based.
A short description of data set [6]: Compound was evaluated for the biliary excretion in the anesthetized rats in 6 hours after intravenous doses 1 mg/kg. Details: dose 1 mg/kg, route intravenous. The conditions noted are these: rat, bile, read-out: Excretion. The data set is classed as ADME, organism-based.
A short description of data set [7]: Compound was evaluated for the biliary excretion in the anesthetized rats in 6 hours after intravenous doses 10 mg/kg. The data set is classed as ADME, organism-based. Also noted: dose 10 mg/kg, route intravenous. The conditions noted are these: rat, bile, read-out: Excretion.
Data set [8] in a line: Compound was evaluated for the biological half-life in rat after a dose of 10 mg/kg given intravenously. The data set is classed as ADME, organism-based. Also noted: dose 10 mg/kg, route intravenous. The settings on record: in vivo, iv.
Data set [9] deals with Mus musculus. In words: Compound was evaluated for the dose required for protection against scMET-induced seizures after 4 hours of intraperitoneal administration. The class given is functional.
For data set [10], the system named is Mus musculus. In words: Compound was evaluated for the biological half-life in mouse after a dose of 40 mg/kg given intraperitoneally. The settings on record: in vivo, ip.
Data set [11] deals with Mus musculus. In words: Compound was evaluated for the dose required for protection against MES-induced seizures after 4 hours of intraperitoneal administration at the doses< = 0.77-0.90 mM/kg; Inactive. The class given is functional, organism-based.

`O=C1NC(=O)C(c2ccccc2)(c2cccc(C(F)(F)F)c2)N1` (centres undefined) returned an Activity in the data set on Mus musculus [1] of 0.31 mmol/kg. Further, the result in the data set on Mus musculus [2] was inactive. The Neurotoxicity entry in the data set with Mus musculus [3] was “No toxicity”.

On to `Cc1cccc(C2(c3ccc(C(F)(F)F)cc3)NC(=O)NC2=O)c1` (centres undefined), for which the result in the data set with Mus musculus [4] and in the data set on Mus musculus [5] was inactive. Besides, the Neurotoxicity entry in the data set with Mus musculus [3] was “No toxicity”.

The term half-life denotes how long it takes for the measured level to halve. With `O=C1NC(=O)C(c2ccccc2)(c2ccccc2)N1` [PHENYTOIN], the dose excreted at 6 h amounted to 54% in data set [6] and 28% in [7]. This molecule gave a half-life in data set [8] of 30 min. The same molecule displayed an Activity with Mus musculus [1] of 0.038 mmol/kg. Moreover, the result in the data set with Mus musculus [9] was inactive. The molecule also gave a T1/2 with Mus musculus [10] of 990 min.

Regarding `O=C1NC(=O)C(c2ccc(C(F)(F)F)cc2)(c2cccc(C(F)(F)F)c2)N1` (centres undefined), the outcome with Mus musculus [4] and with Mus musculus [5] was inactive. The Neurotoxicity entry in the data set on Mus musculus [3] is “No toxicity”.

`O=C1NC(=O)C(c2cccc(C(F)(F)F)c2)(c2cccc(C(F)(F)F)c2)N1`: the result in the data set on Mus musculus [11] was inactive. This molecule came in with an Activity with Mus musculus [9] of 2.6 mmol/kg. Besides, the Neurotoxicity result in the data set on Mus musculus [3] is “No toxicity”.

In the case of `Cc1cccc(C2(c3cccc(C(F)(F)F)c3)NC(=O)NC2=O)c1` (stereo in doubt; 9), the outcome in the data set with Mus musculus [4] and with Mus musculus [5] was inactive.

The molecule `O=C1NC(=O)C(c2ccccc2)(c2ccc(C(F)(F)F)cc2)N1` (centres undefined) returned an Activity in the data set with Mus musculus [1] of 0.94 mmol/kg. For the same molecule, the outcome with Mus musculus [2] was inactive. Further, the Neurotoxicity result in the data set with Mus musculus [3] was “No toxicity”.

Take `Cc1ccc(C2(c3cccc(C(F)(F)F)c3)NC(=O)NC2=O)cc1` (stereo in doubt; 7): the result in the data set with Mus musculus [4] and in the data set on Mus musculus [5] was inactive. Besides, in the data set on Mus musculus [3], the Neurotoxicity result was “No toxicity”.

In the case of `Cc1ccc(C2(c3ccc(C(F)(F)F)cc3)NC(=O)NC2=O)cc1` (centres undefined), the outcome with Mus musculus [4] and in the data set with Mus musculus [5] was inactive. In the data set with Mus musculus [3], the Neurotoxicity entry is “No toxicity”.
